According to US20230203098A1, “HUMAN TRANSFERRIN RECEPTOR BINDING PEPTIDE” (priority 2020, published 2023):
Like-named read-outs stand apart in the source and are kept apart here. Where a SMILES comes first, the peptide text is derived from it. Bridges are numbered along the chain shown (N, C = ends). [ ]: non-standard residue; d: D form. The star is where a group is joined. NH(CH2CH2O)8Me = COCCOCCOCCOCCOCCOCCOCCOCCN*; NMePhe(3-Cl) = CN[C@@H](Cc1cccc(Cl)c1)C(=O)O; NMeW = CN[C@@H](Cc1c[nH]c2ccccc12)C(=O)O; NMeY = CN[C@@H](Cc1ccc(O)cc1)C(=O)O; PEG4 = NCCOCCOCCOCCOCCC(=O)O; hLys = NCCCCC[C@H](N)C(=O)O; X1 = CN[C@H](CCCCN*)C(=O)O; dOrn = NCCC[C@@H](N)C(=O)O

Biological target: transferrin receptor (hTfR) (Homo sapiens, UniProt P02786)
Experiment: Intermolecular interaction evaluation test between transferrin receptor (hTfR) and peptide by surface plasmon resonance (SPR)
Type: binding
In short: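 hTfR captured on Ni-NTA chip then amine-coupled; peptides run single-cycle kinetics at 5–100 nM in 10 mM HEPES pH 8.0, 150 mM NaCl, 0.05% Tween 20, 0.1% BSA, 1.0% DMSO. KD from least-squares curve fitting of sensorgrams.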

[1] = surface plasmon resonance, peptide vs hTfR, read-out: KD value, hTfR binding by SPR (class symbol)
[2] = surface plasmon resonance, hTfR, read-out: KD value for hTfR by SPR (class symbol)

Chain of transferrin receptor (hTfR) (P02786 whole entry): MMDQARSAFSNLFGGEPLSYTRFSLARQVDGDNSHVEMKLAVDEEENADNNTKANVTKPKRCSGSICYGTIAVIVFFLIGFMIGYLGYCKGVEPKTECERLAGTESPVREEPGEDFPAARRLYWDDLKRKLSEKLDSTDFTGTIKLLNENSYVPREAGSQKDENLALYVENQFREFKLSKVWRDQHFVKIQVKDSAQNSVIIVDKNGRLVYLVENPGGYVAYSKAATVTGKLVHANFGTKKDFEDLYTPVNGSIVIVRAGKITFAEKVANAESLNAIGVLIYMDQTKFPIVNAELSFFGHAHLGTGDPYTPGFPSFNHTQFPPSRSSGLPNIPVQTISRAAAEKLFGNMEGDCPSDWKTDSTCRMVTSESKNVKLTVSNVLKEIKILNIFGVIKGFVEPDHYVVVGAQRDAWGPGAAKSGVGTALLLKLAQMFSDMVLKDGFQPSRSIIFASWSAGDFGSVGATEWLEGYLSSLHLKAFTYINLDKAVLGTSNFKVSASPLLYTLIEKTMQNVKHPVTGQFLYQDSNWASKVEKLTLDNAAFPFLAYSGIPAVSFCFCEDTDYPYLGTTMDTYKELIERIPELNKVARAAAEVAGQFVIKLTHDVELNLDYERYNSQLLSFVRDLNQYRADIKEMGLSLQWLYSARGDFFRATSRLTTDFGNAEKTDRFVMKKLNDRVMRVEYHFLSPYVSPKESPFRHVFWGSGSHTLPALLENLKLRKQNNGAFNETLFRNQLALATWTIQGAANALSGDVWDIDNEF

| SMILES | Kd [1] [nM] | further results |
| --- | --- | --- |
| CC[C@H](C)[C@@H]1NC(=O)[C@H](Cc2ccc(OC)cc2)NC(=O)[C@H](Cc2ccc(O)cc2)NC(=O)[C@H](CC(N)=O)NC(=O)[C@H](Cc2c[nH]c3ccccc23)N(C)C(=O)[C@H](C(C)C)NC(=O)[C@H](Cc2cccc(Cl)c2)N(C)C(=O)[C@H](C(C)C)NC(=O)[C@H](C)NC(=O)CSC[C@@H](C(=O)NCCOCCOCCOCCOCCC(N)=O)NC(=O)[C@H](Cc2ccc(O)cc2)N(C)C(=O)[C@H](Cc2ccccc2)NC(=O)[C@@H](CCCNC(=N)N)NC(=O)[C@H](CCCNC(=N)N)NC(=O)[C@@H](CCCN)NC1=O [compound 338] ({CH2CO}-AV[NMePhe(3-Cl)]V[NMeW]NYY(Me)I[dOrn]R[dR]F[NMeY]C[PEG4]-NH2; thioether N-15) | 1 to 100 |  |
| CC[C@H](C)[C@@H]1NC(=O)[C@H](Cc2ccc(OC)cc2)NC(=O)[C@H](Cc2ccc(O)cc2)NC(=O)[C@H](CC(N)=O)NC(=O)[C@H](Cc2c[nH]c3ccccc23)N(C)C(=O)[C@H](C(C)C)NC(=O)[C@H](Cc2cccc(Cl)c2)N(C)C(=O)[C@H](C(C)C)NC(=O)[C@H](C)NC(=O)CSC[C@@H](C(=O)NCCOCCOCCOCCOCCC(N)=O)NC(=O)[C@H](Cc2ccc(O)cc2)N(C)C(=O)[C@H](Cc2ccccc2)NC(=O)[C@@H](CCCNC(=N)N)NC(=O)[C@H](CCCNC(=N)N)NC(=O)[C@H](CCCCCN)NC1=O [compound 339] ({CH2CO}-AV[NMePhe(3-Cl)]V[NMeW]NYY(Me)I[hLys]R[dR]F[NMeY]C[PEG4]-NH2; thioether N-15) | 1 to 100 |  |
| CC[C@H](C)[C@@H]1NC(=O)[C@H](Cc2ccc(OC)cc2)NC(=O)[C@H](Cc2ccc(O)cc2)NC(=O)[C@H](CC(N)=O)NC(=O)[C@H](Cc2c[nH]c3ccccc23)N(C)C(=O)[C@H](C(C)C)NC(=O)[C@H](Cc2cccc(Cl)c2)N(C)C(=O)[C@H](C(C)C)NC(=O)[C@H](C)NC(=O)CSC[C@@H](C(=O)NCC(=O)N[C@@H](CCCCN=[N+]=[N-])C(N)=O)NC(=O)[C@H](Cc2ccc(O)cc2)N(C)C(=O)[C@H](Cc2ccccc2)NC(=O)[C@@H](CCCNC(=N)N)NC(=O)[C@H](CCCNC(=N)N)NC(=O)[C@H](CCC(=O)O)NC1=O [compound 340] | 1 to 100 |  |
| CC[C@H](C)[C@@H]1NC(=O)[C@H](Cc2ccc(OC)cc2)NC(=O)[C@H](Cc2ccc(O)cc2)NC(=O)[C@H](CC(N)=O)NC(=O)[C@H](Cc2c[nH]c3ccccc23)N(C)C(=O)[C@H](C(C)C)NC(=O)[C@H](Cc2cccc(Cl)c2)N(C)C(=O)[C@H](C(C)C)NC(=O)[C@H](C)NC(=O)CSC[C@@H](C(=O)NCC(=O)NCC(=O)NCC(=O)NCC(=O)N[C@@H](CO)C(=O)N[C@@H](CO)C(=O)N[C@@H](CS)C(N)=O)NC(=O)[C@H](Cc2ccc(O)cc2)N(C)C(=O)[C@H](Cc2ccccc2)NC(=O)[C@@H](CCCNC(=N)N)NC(=O)[C@H](CCCNC(=N)N)NC(=O)[C@H](CCCCCN)NC1=O [compound 341] |  | Kd: 1 to 100 nM |
| CC[C@H](C)[C@@H]1NC(=O)[C@H](Cc2ccc(OC)cc2)NC(=O)[C@H](Cc2ccc(O)cc2)NC(=O)[C@H](CC(N)=O)NC(=O)[C@H](Cc2c[nH]c3ccccc23)N(C)C(=O)[C@H](C(C)C)NC(=O)[C@H](Cc2cccc(Cl)c2)N(C)C(=O)[C@H](C(C)C)NC(=O)[C@H](C)NC(=O)CSC[C@@H](C(=O)NCC(=O)NCC(=O)NCC(=O)NCC(=O)N[C@@H](CO)C(=O)N[C@@H](CO)C(=O)N[C@@H](CS)C(N)=O)NC(=O)[C@H](Cc2ccc(O)cc2)N(C)C(=O)[C@H](Cc2ccccc2)NC(=O)[C@@H](CCCNC(=N)N)NC(=O)[C@H](CCCNC(=N)N)NC(=O)[C@H](CCC(=O)O)NC1=O [compound 342] | 1 to 100 |  |
| CC[C@H](C)[C@@H]1NC(=O)[C@H](Cc2ccc(OC)cc2)NC(=O)[C@H](Cc2ccc(O)cc2)NC(=O)[C@H](CC(N)=O)NC(=O)[C@H](Cc2c[nH]c3ccccc23)N(C)C(=O)[C@H](C(C)C)NC(=O)[C@H](Cc2cccc(Cl)c2)N(C)C(=O)[C@H](C(C)C)NC(=O)[C@H](C)NC(=O)CSC[C@@H](C(=O)NCC(=O)NCC(=O)NCC(=O)NCC(=O)N[C@@H](CO)C(=O)N[C@@H](CO)C(=O)N[C@@H](CS)C(N)=O)NC(=O)[C@H](Cc2ccc(O)cc2)N(C)C(=O)[C@H](Cc2ccccc2)NC(=O)[C@@H](CCCNC(=N)N)NC(=O)[C@H](CCCNC(=N)N)NC(=O)[C@H](CN)NC1=O [compound 343] |  | Kd: 1 to 100 nM |
| CC[C@H](C)[C@@H]1NC(=O)[C@H](Cc2ccc(OC)cc2)NC(=O)[C@H](Cc2ccc(O)cc2)NC(=O)[C@H](CC(N)=O)NC(=O)[C@H](Cc2c[nH]c3ccccc23)N(C)C(=O)[C@H](C(C)C)NC(=O)[C@H](Cc2cccc(Cl)c2)N(C)C(=O)[C@H](C(C)C)NC(=O)[C@H](C)NC(=O)CSC[C@@H](C(=O)NCC(=O)NCC(=O)NCC(=O)NCC(=O)N[C@@H](CO)C(=O)N[C@@H](CO)C(=O)N[C@@H](CS)C(N)=O)NC(=O)[C@H](Cc2ccc(O)cc2)N(C)C(=O)[C@H](Cc2ccccc2)NC(=O)[C@@H](CCCNC(=N)N)NC(=O)[C@H](CCCNC(=N)N)NC(=O)[C@H](CCCCN)NC1=O [compound 344] | 1 to 100 |  |
| CC[C@H](C)[C@@H]1NC(=O)[C@H](Cc2ccc(OC)cc2)NC(=O)[C@H](Cc2ccc(O)cc2)NC(=O)[C@H](CC(N)=O)NC(=O)[C@H](Cc2c[nH]c3ccccc23)N(C)C(=O)[C@H](C(C)C)NC(=O)[C@H](Cc2cccc(Cl)c2)N(C)C(=O)[C@H](C(C)C)NC(=O)[C@H](C)NC(=O)CSC[C@@H](C(N)=O)NC(=O)[C@H](Cc2ccc(O)cc2)N(C)C(=O)[C@H](Cc2ccccc2)NC(=O)[C@@H](CCCNC(=N)N)NC(=O)[C@H](CCCNC(=N)N)NC(=O)[C@H](CCC(=O)NCCOCCOCCOCCOCCOCCOCCOCCOC)NC1=O [compound 345] ({CH2CO}-AV[NMePhe(3-Cl)]V[NMeW]NYY(Me)IE(NH(CH2CH2O)8Me)R[dR]F[NMeY]C-NH2; thioether N-15) | 1 to 100 |  |
| CC[C@H](C)[C@@H]1NC(=O)[C@H](Cc2ccc(OC)cc2)NC(=O)[C@H](Cc2ccc(O)cc2)NC(=O)[C@H](CC(N)=O)NC(=O)[C@H](Cc2c[nH]c3ccccc23)N(C)C(=O)[C@H](C(C)C)NC(=O)[C@H](Cc2cccc(Cl)c2)N(C)C(=O)[C@H](C(C)C)NC(=O)[C@H](C)NC(=O)CSC[C@@H](C(N)=O)NC(=O)[C@H](Cc2ccc(O)cc2)N(C)C(=O)[C@H](Cc2ccccc2)NC(=O)[C@@H](CCCNC(=N)N)NC(=O)[C@H](CCCNC(=N)N)NC(=O)[C@H](CCC(=O)NCCCC[C@@H](NC)C(=O)O)NC1=O [compound 346] ({CH2CO}-AV[NMePhe(3-Cl)]V[NMeW]NYY(Me)IE(X1)R[dR]F[NMeY]C-NH2; thioether N-15) | 1 to 100 |  |
| CC[C@H](C)[C@@H]1NC(=O)[C@H](Cc2ccc(OC)cc2)NC(=O)[C@H](Cc2ccc(O)cc2)NC(=O)[C@H](CC(N)=O)NC(=O)[C@H](Cc2c[nH]c3ccccc23)N(C)C(=O)[C@H](C(C)C)NC(=O)[C@H](Cc2cccc(Cl)c2)N(C)C(=O)[C@H](C(C)C)NC(=O)[C@H](C)NC(=O)CSC[C@@H](C(N)=O)NC(=O)[C@H](Cc2ccc(O)cc2)N(C)C(=O)[C@H](Cc2ccccc2)NC(=O)[C@@H](CCCNC(=N)N)NC(=O)[C@H](CCCNC(=N)N)NC(=O)[C@H](CCC(=O)N[C@H](CCC(=O)O)C(=O)O)NC1=O [compound 347] ({CH2CO}-AV[NMePhe(3-Cl)]V[NMeW]NYY(Me)IE(dE)R[dR]F[NMeY]C-NH2; thioether N-15) | 1 to 100 |  |
| CC[C@H](C)[C@@H]1NC(=O)[C@H](Cc2ccc(OC)cc2)NC(=O)[C@H](Cc2ccc(O)cc2)NC(=O)[C@H](CC(N)=O)NC(=O)[C@H](Cc2c[nH]c3ccccc23)N(C)C(=O)[C@H](C(C)C)NC(=O)[C@H](Cc2cccc(Cl)c2)N(C)C(=O)[C@H](C(C)C)NC(=O)[C@H](C)NC(=O)CSC[C@@H](C(=O)NCC(=O)NCC(=O)NCC(=O)NCC(=O)N[C@@H](CO)C(=O)N[C@@H](CO)C(=O)N[C@@H](CS)C(N)=O)NC(=O)[C@H](Cc2ccc(O)cc2)N(C)C(=O)[C@H](Cc2ccccc2)NC(=O)[C@@H](CCCNC(=N)N)NC(=O)[C@H](CCC(=O)O)NC(=O)[C@H]([C@@H](C)CC)NC1=O [compound 348] | 100 to 1000 |  |
| CC[C@H](C)[C@@H]1NC(=O)[C@H](Cc2ccc(OC)cc2)NC(=O)[C@H](Cc2ccc(O)cc2)NC(=O)[C@H](CC(N)=O)NC(=O)[C@H](Cc2c[nH]c3ccccc23)N(C)C(=O)[C@H](C(C)C)NC(=O)[C@H](Cc2cccc(Cl)c2)N(C)C(=O)[C@H](C(C)C)NC(=O)[C@H](C)NC(=O)CSC[C@@H](C(=O)NCCOCCOCCOCCOCCC(N)=O)NC(=O)[C@H](Cc2ccc(O)cc2)N(C)C(=O)[C@H](Cc2ccccc2)NC(=O)[C@H](CCCNC(=N)N)NC(=O)C(C)(C)NC(=O)[C@H]([C@@H](C)CC)NC1=O [compound 351] |  | Kd [2]: 1 to 100 nM |
| CC[C@H](C)[C@@H]1NC(=O)[C@H](Cc2ccc(OC)cc2)NC(=O)[C@H](Cc2ccc(O)cc2)NC(=O)[C@H](CC(N)=O)NC(=O)[C@H](Cc2c[nH]c3ccccc23)N(C)C(=O)[C@H](C(C)C)NC(=O)[C@H](Cc2cccc(Cl)c2)N(C)C(=O)[C@H](C(C)C)NC(=O)[C@H](C)NC(=O)CSC[C@@H](C(=O)NCCOCCOCCOCCOCCC(N)=O)NC(=O)[C@H](Cc2ccc(O)cc2)NC(=O)[C@H](Cc2ccccc2)NC(=O)[C@@H](CCCNC(=N)N)NC(=O)C(C)(C)NC(=O)[C@H]([C@@H](C)CC)NC1=O [compound 352] |  | Kd [2]: 1 to 100 nM |
| CC[C@H](C)[C@@H]1NC(=O)[C@H](Cc2ccc(OC)cc2)NC(=O)[C@H](Cc2ccc(O)cc2)NC(=O)[C@H](CC(N)=O)NC(=O)[C@H](Cc2c[nH]c3ccccc23)N(C)C(=O)[C@H](C(C)C)NC(=O)[C@H](Cc2cccc(Cl)c2)N(C)C(=O)[C@H](C(C)C)NC(=O)[C@H](C)NC(=O)CSC[C@@H](C(N)=O)NC(=O)[C@H](Cc2ccc(O)cc2)N(C)C(=O)[C@H](Cc2ccccc2)NC(=O)[C@@H](CCCNC(=N)N)NC(=O)C(C)(C)NC(=O)[C@H]([C@@H](C)CC)NC1=O [compound 353] |  | Kd [2]: 1 to 100 nM |
| CC[C@H](C)[C@@H]1NC(=O)[C@H](Cc2ccc(OC)cc2)NC(=O)[C@H](Cc2ccc(O)cc2)NC(=O)[C@H](CC(N)=O)NC(=O)[C@H](Cc2c[nH]c3ccccc23)N(C)C(=O)[C@H](C(C)C)NC(=O)[C@H](Cc2cccc(Cl)c2)N(C)C(=O)[C@H](C(C)C)NC(=O)[C@H](C)NC(=O)CSC[C@@H](C(=O)NCCOCCOCCOCCOCCC(N)=O)NC(=O)[C@H](Cc2ccc(O)cc2)N(C)C(=O)[C@H](Cc2ccccc2)NC(=O)[C@@H](CCCNC(=N)N)NC(=O)C(C)(C)NC(=O)[C@H]([C@@H](C)CC)NC1=O [compound 354] |  | Kd [2]: < 1 nM |
